The text below walks through data of patent US8110566B2, “Therapeutic agents 713” (AstraZeneca AB, priority 2009, dated 2012).

By IC50 is commonly meant the concentration needed to halve the response being measured. Read a high IC50 as lower potency.

Experiment [1] has as its target T1, human histamine H3 receptors (Homo sapiens, UniProt Q9Y5N1).
T1 construct: human histamine H3 receptors (full-length H3, the most prevalent brain isoform 445); host or cells: CHO-K1, stably expressing (membranes)
As to the kind of experiment: Histamine H3 SPA with [3H]-N-α-methylhistamine and/or GTPγS binding assay.

Experiment [2] concerns the target T2, human Melanin Concentrating Hormone receptor 1 (MCHR1) (Homo sapiens, UniProt Q99705).
T2 construct: host or cells: CHO-K1 (membranes)
Briefly: MCHr1 IC50 (MCH binding assay / MCHR1 receptor activation assay).

T2 sequence (Q99705 whole entry): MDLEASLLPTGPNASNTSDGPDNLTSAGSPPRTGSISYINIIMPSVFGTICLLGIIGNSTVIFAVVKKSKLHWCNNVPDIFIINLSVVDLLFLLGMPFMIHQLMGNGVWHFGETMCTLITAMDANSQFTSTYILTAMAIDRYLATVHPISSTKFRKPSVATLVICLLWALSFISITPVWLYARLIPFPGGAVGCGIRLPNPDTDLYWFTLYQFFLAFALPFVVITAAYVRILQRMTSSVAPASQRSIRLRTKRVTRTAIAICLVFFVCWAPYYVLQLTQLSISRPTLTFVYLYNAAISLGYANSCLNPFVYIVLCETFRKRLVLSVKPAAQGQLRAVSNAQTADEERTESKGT
T1 sequence (Q9Y5N1 whole entry, canonical isoform): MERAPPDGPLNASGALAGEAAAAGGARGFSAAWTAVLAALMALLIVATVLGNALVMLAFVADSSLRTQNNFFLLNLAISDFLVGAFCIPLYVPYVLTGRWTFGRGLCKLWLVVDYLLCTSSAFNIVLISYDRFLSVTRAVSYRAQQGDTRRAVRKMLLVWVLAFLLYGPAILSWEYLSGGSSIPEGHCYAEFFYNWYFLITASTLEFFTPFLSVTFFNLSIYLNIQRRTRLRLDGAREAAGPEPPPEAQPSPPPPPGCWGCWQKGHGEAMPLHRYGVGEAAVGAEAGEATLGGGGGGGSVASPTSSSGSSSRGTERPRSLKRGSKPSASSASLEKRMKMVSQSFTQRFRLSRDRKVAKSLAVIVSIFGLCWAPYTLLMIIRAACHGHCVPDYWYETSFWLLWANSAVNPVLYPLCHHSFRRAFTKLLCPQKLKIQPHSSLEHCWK

In experiment [1], `O=C(c1nnc(-c2ccccc2)o1)N1CC(Oc2ccc(CN3CC4(COC4)C3)cc2)C1` [Example 3, (3-(4-(2-Oxa-6-azaspiro[3.3]heptan-6-ylmethyl)phenoxy)azetidin-1-yl)(5-phenyl-1,3,4-oxadiazol-2-yl)methanone] came in with a 50% inhibitory concentration (IC50) of 800 nM. For `O=C(c1nnc(-c2ccc(F)cc2)o1)N1CC(Oc2ccc(CN3CC4(COC4)C3)cc2)C1` [Example 6, (3-(4-(2-Oxa-6-azaspiro[3.3]heptan-6-ylmethyl)phenoxy)azetidin-1-yl)(5-(4-fluorophenyl)-1,3,4-oxadiazol-2-yl)methanone], in experiment [2], the concentration for half-maximal inhibition (IC50) amounted to 24 nM.

Turning to `O=C(c1nnc(-c2ccc(Cl)cc2)o1)N1CC(Oc2ccc(CN3CC4(COC4)C3)cc2)C1` [Example 2, (3-(4-(2-Oxa-6-azaspiro[3.3]heptan-6-ylmethyl)phenoxy)azetidin-1-yl)(5-(4-chlorophenyl)-1,3,4-oxadiazol-2-yl)methanone], the IC50 in experiment [2] came to 10 nM; in experiment [1], 620 nM. In experiment [2], `O=C(c1nnc(-c2ccccc2)o1)N1CC(Oc2ccc(CN3CC4(COC4)C3)cc2Cl)C1` [Example 8, (3-(4-(2-Oxa-6-azaspiro[3.3]heptan-6-ylmethyl)-2-chlorophenoxy)azetidin-1-yl)(5-phenyl-1,3,4-oxadiazol-2-yl)methanone] came in with a 50% inhibitory concentration (IC50) of 24 nM. On the same count and under the same terms, under `COc1ccc(-c2nnc(C(=O)N3CC(Oc4ccc(CN5CC6(C5)OCC6(C)C)cc4)C3)o2)cc1` [Example 9, (3-(4-((3,3-Dimethyl-1-oxa-6-azaspiro[3.3]heptan-6-yl)methyl)phenoxy)azetidin-1-yl)(5-(4-methoxyphenyl)-1,3,4-oxadiazol-2-yl)methanone] stands 27 nM.

Consider `O=C(c1nnc(-c2ccccc2)o1)N1CC(Oc2ccc(CN3CC4(COC4)C3)c(Cl)c2)C1` [Example 1, (3-(4-(2-Oxa-6-azaspiro[3.3]heptan-6-ylmethyl)-3-chlorophenoxy)azetidin-1-yl)(5-phenyl-1,3,4-oxadiazol-2-yl)methanone], for which the values for the 50% inhibitory concentration (IC50) in experiment [2] and in experiment [1] were 17 nM and 410 nM, respectively. The compound `O=C(c1nnc(-c2ccccc2)o1)N1CC(Sc2ccc(CN3CC4(COC4)C3)cc2)C1` [Example 5, (3-(4-(2-Oxa-6-azaspiro[3.3]heptan-6-ylmethyl)phenylthio)azetidin-1-yl)(5-phenyl-1,3,4-oxadiazol-2-yl)methanone] had a concentration for half-maximal inhibition (IC50) in experiment [2] of 17 nM. Same read-out and setting: under `O=C(c1nnc(-c2ccc(OC(F)F)cc2)o1)N1CC(Oc2ccc(CN3CC4(COC4)C3)cc2)C1` [Example 7, (3-(4-(2-Oxa-6-azaspiro[3.3]heptan-6-ylmethyl)phenoxy)azetidin-1-yl)(5-(4-(difluoromethoxy)phenyl)-1,3,4-oxadiazol-2-yl)methanone] stands 12 nM; under `CC1(C)COC12CN(Cc1ccc(OC3CN(C(=O)c4nnc(-c5ccccc5)o4)C3)c(Cl)c1)C2` [Example 10, (3-(2-Chloro-4-((3,3-dimethyl-1-oxa-6-azaspiro[3.3]heptan-6-yl)methyl)phenoxy)azetidin-1-yl)(5-phenyl-1,3,4-oxadiazol-2-yl)methanone], 30 nM.
